“Also recorded” adds a separate entry of the source.
Experiments:
[1] = biological target: T1, bovine parathyroid cell calcium receptor (Bos taurus, UniProt P35384); assay: Cl- current in Xenopus oocytes expressing BoPCaR 1; assay type: cell-based; details: for effect on Cl- current: BoPCaR 1-injected oocytes; for effect in control oocytes: uninjected, water or rat liver mRNA oocytes
T1 construct: expressed in transfected cells; host or cells: Xenopus laevis oocytes injected with BoPCaR 1 cRNA
T1 sequence (P35384 20-1085): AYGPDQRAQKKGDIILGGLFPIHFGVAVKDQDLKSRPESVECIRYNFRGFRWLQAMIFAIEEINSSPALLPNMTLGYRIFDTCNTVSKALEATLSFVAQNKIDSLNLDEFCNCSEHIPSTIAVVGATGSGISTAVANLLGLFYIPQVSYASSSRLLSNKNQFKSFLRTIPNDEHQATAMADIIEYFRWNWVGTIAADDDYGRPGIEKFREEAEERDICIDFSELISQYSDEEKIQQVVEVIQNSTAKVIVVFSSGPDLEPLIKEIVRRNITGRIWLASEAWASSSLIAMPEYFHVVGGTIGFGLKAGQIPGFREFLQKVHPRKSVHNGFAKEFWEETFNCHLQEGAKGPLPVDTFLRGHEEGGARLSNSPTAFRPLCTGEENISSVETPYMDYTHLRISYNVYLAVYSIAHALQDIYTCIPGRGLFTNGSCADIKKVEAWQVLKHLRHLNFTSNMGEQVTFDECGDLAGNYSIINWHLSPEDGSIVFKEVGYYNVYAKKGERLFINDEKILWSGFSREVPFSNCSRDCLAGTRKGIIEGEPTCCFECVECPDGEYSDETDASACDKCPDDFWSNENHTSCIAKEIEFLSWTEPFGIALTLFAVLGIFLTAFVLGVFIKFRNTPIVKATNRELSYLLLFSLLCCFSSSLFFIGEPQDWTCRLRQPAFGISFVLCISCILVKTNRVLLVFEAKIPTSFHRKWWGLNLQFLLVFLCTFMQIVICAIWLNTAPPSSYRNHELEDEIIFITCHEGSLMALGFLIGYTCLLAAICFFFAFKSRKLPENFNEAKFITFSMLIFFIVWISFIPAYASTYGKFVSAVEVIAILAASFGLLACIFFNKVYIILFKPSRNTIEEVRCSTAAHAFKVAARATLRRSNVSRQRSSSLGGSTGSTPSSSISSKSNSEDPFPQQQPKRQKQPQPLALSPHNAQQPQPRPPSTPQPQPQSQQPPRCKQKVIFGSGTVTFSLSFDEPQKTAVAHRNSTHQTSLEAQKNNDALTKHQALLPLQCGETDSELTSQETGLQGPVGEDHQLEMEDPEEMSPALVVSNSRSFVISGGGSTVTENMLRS
Experimental: Several pharmacological and biochemical criteria were used to identify this clone as encoding a bona fide bovine parathyroid Ca^2+ receptor. […] These responses increased markedly over a period of one to four days after injection of the eggs with cRNA prepared from the BoPCaR 1 cDNA. Furthermore, the ranges of the concentrations of the two cations eliciting this response were very similar to those shown previously to act on bovine parathyroid cells in vitro.
Xenopus oocytes were injected with BoPCaR 1, the 5.3 Kb cDNA encoding a bovine parathyroid cell calcium receptor as described in Example 25. After two to three days, Cl^- currents were examined in the oocytes using a two-electrode voltage clamp.
Xenopus oocytes were injected with BoPCaR 1 as described in Example 25. After two to three days, Cl^- currents were examined in the oocytes using two electrode voltage clamp.

C-cell calcium receptor = biological target: T2, C-cell calcium receptor (Rattus norvegicus, UniProt P48442); assay type: cell-based
T2 construct: Neoplastic C-cells derived from a rat medullary thyroid carcinoma (rMTC 6-23); host or cells: rMTC 6-23 cells
T2 sequence (P48442 20-1079): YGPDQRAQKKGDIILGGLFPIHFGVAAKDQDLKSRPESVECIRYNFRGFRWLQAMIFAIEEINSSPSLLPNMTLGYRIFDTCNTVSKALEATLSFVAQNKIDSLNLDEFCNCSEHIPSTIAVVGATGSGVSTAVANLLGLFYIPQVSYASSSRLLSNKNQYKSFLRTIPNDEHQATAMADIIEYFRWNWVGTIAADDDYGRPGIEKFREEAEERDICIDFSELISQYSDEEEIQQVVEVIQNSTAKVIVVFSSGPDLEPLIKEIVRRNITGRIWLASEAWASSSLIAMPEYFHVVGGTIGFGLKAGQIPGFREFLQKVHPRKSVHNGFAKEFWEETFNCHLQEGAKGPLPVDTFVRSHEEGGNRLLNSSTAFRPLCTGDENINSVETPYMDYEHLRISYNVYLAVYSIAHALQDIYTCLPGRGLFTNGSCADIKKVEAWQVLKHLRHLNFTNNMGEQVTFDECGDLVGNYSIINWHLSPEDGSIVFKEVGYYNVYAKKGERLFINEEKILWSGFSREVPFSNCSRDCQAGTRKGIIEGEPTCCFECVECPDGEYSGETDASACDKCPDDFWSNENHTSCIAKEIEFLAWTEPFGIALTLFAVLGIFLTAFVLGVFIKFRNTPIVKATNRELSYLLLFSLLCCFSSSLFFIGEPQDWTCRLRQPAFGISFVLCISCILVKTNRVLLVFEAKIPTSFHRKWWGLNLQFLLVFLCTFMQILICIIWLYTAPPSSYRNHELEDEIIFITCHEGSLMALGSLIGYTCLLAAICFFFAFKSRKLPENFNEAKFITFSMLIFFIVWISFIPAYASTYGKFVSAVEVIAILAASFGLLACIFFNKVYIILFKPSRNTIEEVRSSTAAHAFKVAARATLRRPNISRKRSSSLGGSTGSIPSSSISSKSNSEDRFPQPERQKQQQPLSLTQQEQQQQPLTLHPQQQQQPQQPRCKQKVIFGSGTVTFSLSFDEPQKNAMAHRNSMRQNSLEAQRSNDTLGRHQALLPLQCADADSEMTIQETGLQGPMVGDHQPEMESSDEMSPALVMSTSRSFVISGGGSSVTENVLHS
Source text: To assess the effects of molecular polycations on C-cells, a neoplastic cell line, derived from a rat medullary thyroid carcinoma (rMTC 6-23 cells) was used.

Row | SMILES | effect on Cl- current [1] | effective concentration range, Cl- current ([1]; BoPCaR 1 oocytes) [µM] | effect on Cl- current in absence of extracellular Ca2+ [1] | effect on [Ca2+]i in C-cells (C-cell calcium receptor) | effect in control oocytes [1] | effect on extracellular Ca2+ concentration-response curve [1]
1 | NC[C@@H]1O[C@H](O[C@H]2[C@@H](O)[C@H](O[C@@H]3[C@@H](O)[C@H](N)C[C@H](N)[C@H]3O[C@H]3O[C@H](CN)[C@@H](O)[C@H](O)[C@H]3N)O[C@@H]2CO)[C@H](N)[C@@H](O)[C@@H]1O [Neomycin] | large inward currents | 20 to 100 | persist despite removal of extracellular Ca^2+ | fails to affect basal or evoked increases in C-cells; also recorded: without effect on basal [Ca^2+ ]i; also recorded: fail to affect the calcium receptors on C-cells or osteoclasts |  | 
2 | NCCCNCCCCNCCCNCCCNCCCNC(=O)Cc1c[nH]c2ccccc12 [NPS 019] | caused oscillatory increases in the Cl^- |  | persisted in the absence of extracellular Ca^2+ | mobilization of intracellular Ca^2+ | Neither NPS 017 nor NPS 019 elicited changes in Cl^- | 
3 | COc1cccc([C@@H](C)NCCCc2ccccc2Cl)c1 [NPS R-568, (R)-(+)-N-[3-(2-chlorophenyl)propyl]-α-methyl-3-methoxybenzylamine] | caused increases in the Cl^- |  | abolished in the absence of extracellular Ca^2+ |  | failed to evoke responses | potentiated the responses to submaximal concentrations of extracellular Ca^2+; also recorded: shift the extracellular Ca^2+ concentration-response curve to the left

From patent US5962314A, “Calcium receptor-active molecules” (priority 1997, dated 1999)
